Test results published in patent US20240350411A1, “METHODS FOR PREPARING LIPOSOMAL FORMULATIONS” (Celator Pharmaceuticals, Inc., priority 2021, published 2024).

Test: Removal of free drug during purification with acidified sugar solution: concentration in the permeate
From the text: Without being bound by theory, it is surmised that encapsulation of therapeutic agents into liposomes results in some portion of the therapeutic agent becoming associated with or trapped within the lipid bilayer, particularly when encapsulating therapeutic agents with low water solubility or high hydrophobicity. Purifying the liposomal composition with an acidified aqueous solution may remove therapeutic agent that is associated with or trapped within the lipid bilayer, resulting in a liposome formulation that contains a therapeutic agent that is only encapsulated within the internal medium of the liposomes. […] As the washing volume increases—that is, as the liposomal composition is washed with an increasing amount of acidified aqueous sugar solution—the amount of Compound 9 detected in the permeate peaks, and then decreases. The peak is thought to result from a rapid release of Compound 9 that is associated with or trapped in the lipid bilayer into the acidified aqueous sugar solution. […] In other words, purifying the liposomal composition with an acidified aqueous solution may allow for any therapeutic agent merely associated with or trapped within the lipid bilayer to release into the acidified aqueous solution, thus preventing a rapid release from occurring in the bloodstream of a patient upon administration.
A formulation of liposomes containing Compound 9 was prepared and purified as described in Examples 1A, 1B, and 2. The liposome formulation comprised DSPC/Cholesterol/PEGylated (58/40/2 mol %) and used 250 mM AS as the loading aid.
During the purification of the formulation using tangential flow filtration, the concentration of Compound 9 in the permeate was measured, as shown below in Table 7. FIG. 3 depicts the concentration of Compound 9 in the permeate vs. the washing volume.

- Compound 9 detected in the permeate (after washing with about 300-400 mL of acidified aqueous sugar solution (FIG. 3)): little
- Concentration of Compound x in the permeate (washing volume 1×): 7.1 µg/mL
- Concentration of Compound x in the permeate (washing volume 3×): 15.9 µg/mL
- Concentration of Compound x in the permeate (washing volume 6×): 3.5 µg/mL
- Concentration of Compound x in the permeate (washing volume 9×): 1.4 µg/mL
- Concentration of Compound x in the permeate (washing volume 12×): 1 µg/mL
Compound: CCN(CC)C1CCN(CC[C@H](CSc2ccccc2)Nc2ccc(S(=O)(=O)NC(=O)c3ccc(N4CCN(CC5=C(c6ccc(Cl)cc6)CCC(C)(C)C5)CC4)cc3)cc2S(=O)(=O)C(F)(F)F)CC1 [Compound 9]
